Data from patent publication US10820823B2, “Evaluation of inhibitory circuit and use thereof” (INTER-UNIVERSITY RESEARCH INSTITUTE C[…] INSTITUTES OF …, priority 2015, dated 2020).

Tests used:
[1] = system: GABA-A early inhibition due to basket cells; details: slice specimens; cited from earlier work
[2] = system: inhibitory circuit (GABA-A early inhibition); test: Inhibition rate (prepulse attenuation) of auditory change-related brain activity by magnetoencephalography, before and after drug administration; format: in vivo, human; details: for effect of drug on inhibition: 5 mg single oral administration
Protocol: In the present embodiment, an action of inhibitory circuits of 13 humans was evaluated using an excitatory circuit for a change response to a sound pressure change in an auditory system. As for the change response, when a sudden slight increase in sound pressure (10 dB) is generated in a background sound in which a short click sound (70 dB) of 1 ms is continuously generated at a frequency of 100 Hz, the human brain reacts thereto with very high sensitivity and a remarkable brain response is triggered.
The evaluation system included a stimulus output unit and a brain activity measurement unit.
Full-head measurement with the cerebral magnetic field measurement unit was performed using a magnetoencephalograph (306 channel magnetoencephalograph (Vector View, Neuromag, Helsinki, Finland)).
Three kinds of stimuli, namely, the test stimulus, the preceding stimulus, and the test+preceding stimulus were sequentially applied to the subject at regular intervals from the stimulus output irnit through an insert earphone from the start of the test, and brain activity induced by the activation of the excitatory circuit at this time was measured as a cerebral magnetic field. […] A predetermined number of trials could be designated in the cerebral magnetic field measurement unit, addition was performed automatically, and an attenuation rate (inhibition rate) was obtained from the amplitude of the addition waveform.
Effect of diazepam (5 mg single oral administration) on inhibition was examined by comparing the inhibition rates before and after the administration of the drug to two subjects of different types by the same recording procedure as in first embodiment. The amplitude of the response was taken between vertices of a component of 50 ms and a component of 100 ms (black triangles).

**Q.** For `CN1C(=O)CN=C(c2ccccc2)c2cc(Cl)ccc21` [diazepam], which “effect on GABA-A early inhibition due to basket cells” value [1] is on record?
**A.** enhances

**Q.** And the “change of inhibition after the administration” value ([2]; Subject 1 (strong inhibition before administration), diazepam 5 mg single oral administration, 1 hour after administration)?
**A.** little change

**Q.** And the “effect of drug on inhibition” value ([2]; Subject 1)?
**A.** small effect

**Q.** What about the “inhibition rate after the administration” value ([2]; Subject 2 (weak early inhibition before administration), diazepam 5 mg single oral administration, 1 hour after administration) of the same compound?
**A.** 45%

**Q.** What about the “effect of drug on inhibition” value ([2]; Subject 2) of the same compound?
**A.** strong effect
